Measurements: patent US8765748B2, “Indazolyl, benzimidazolyl, benzotriazolyl substituted indolinone derivatives as kinase inhibitors useful in the treatment of cancer” (University Health Network, priority 2007, dated 2014)

Tests used:
Format in all cases: biochemical
human PLK4 = biological target: T1, human PLK4 (Homo sapiens, UniProt O00444); test: PLK4 Inhibition Assay (indirect ELISA); conditions: 15 μM ATP, 4 nM GST-PLK4; read-out: PLK4 IC50 Ranges
T1 construct: amino terminal GST fusion of residues 1-391 of human PLK4; made in house; host or cells: E. coli
T1 sequence (O00444 1-391): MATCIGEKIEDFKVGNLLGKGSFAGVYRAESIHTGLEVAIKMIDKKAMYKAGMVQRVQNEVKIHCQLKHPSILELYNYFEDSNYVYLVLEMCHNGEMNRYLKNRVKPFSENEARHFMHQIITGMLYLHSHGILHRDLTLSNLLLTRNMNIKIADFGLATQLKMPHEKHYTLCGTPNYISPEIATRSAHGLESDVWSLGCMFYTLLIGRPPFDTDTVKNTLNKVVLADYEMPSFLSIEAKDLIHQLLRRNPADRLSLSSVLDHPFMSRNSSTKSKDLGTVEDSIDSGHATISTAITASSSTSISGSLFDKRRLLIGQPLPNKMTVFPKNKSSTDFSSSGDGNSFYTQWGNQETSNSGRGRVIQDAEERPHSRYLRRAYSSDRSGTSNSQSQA
Protocol: The protein was purified from clarified cell extracts after induction at 15° C. overnight using glutathione sepharose, gel permeation chromatography, and ion exchange (Resource Q). The resulting protein was dephosphorylated with lambda phosphatase (NEB cat #P0753), and resolved from the phosphatase using gluthione sepharose. The dephosphorylated GST-PLK4 was stored in aliquots at −80° C. until use. PLK4 activity was measured using an indirect ELISA detection system. […] Compounds were pre-incubated in the presence of enzyme for 15 minutes prior to addition of ATP and the activity remaining quantified using the above described activity assay. […] The IC50 value was determined using a non-linear 4 point logistic curve fit (XLfit4, IDBS) with the formula; (A+(B/(1+((x/C)^D)))), where A=background value, B=range, C=inflection point, D=curve fit parameter.

PLK1 = biological target: T2, PLK1 (Homo sapiens, UniProt P53350); test: PLK1 Inhibition Assay (Z-Lyte); conditions: for IC50: 25 μM ATP, 8 nM PLK1, read-out: PLK1 IC50 Ranges; for inhibition at 10 µM: 10 μM compound, read-out: PLK1 relative inhibition percentage at a dose of 10 μM
T2 construct: purchased Invitrogen PV3501
T2 sequence (P53350 whole entry): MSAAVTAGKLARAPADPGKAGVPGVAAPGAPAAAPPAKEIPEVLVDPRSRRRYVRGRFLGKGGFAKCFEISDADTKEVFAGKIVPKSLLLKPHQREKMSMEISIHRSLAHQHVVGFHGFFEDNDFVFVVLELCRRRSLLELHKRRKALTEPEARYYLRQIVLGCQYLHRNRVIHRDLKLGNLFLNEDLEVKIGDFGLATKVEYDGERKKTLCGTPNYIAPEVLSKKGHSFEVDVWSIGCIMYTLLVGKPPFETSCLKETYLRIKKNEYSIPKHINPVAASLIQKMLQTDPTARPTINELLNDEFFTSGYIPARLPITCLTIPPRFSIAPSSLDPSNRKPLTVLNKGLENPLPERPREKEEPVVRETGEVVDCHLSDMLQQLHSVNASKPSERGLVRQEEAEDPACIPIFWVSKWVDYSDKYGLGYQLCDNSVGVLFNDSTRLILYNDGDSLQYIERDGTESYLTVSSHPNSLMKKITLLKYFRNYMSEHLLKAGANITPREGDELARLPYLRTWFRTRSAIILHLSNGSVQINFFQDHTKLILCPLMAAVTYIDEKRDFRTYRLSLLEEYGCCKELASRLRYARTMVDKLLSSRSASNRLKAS
Protocol: PLK1 inhibition was determined using the Z-Lyte assay kit from Invitrogen (cat #PV3802). […] The % inhibition values were determined according to the manufacturer's directions and IC50 values were obtained using a non-linear 4 point logistic curve fit (XLfit4, IDBS)

Aurora B = biological target: T3, Aurora B (Homo sapiens, UniProt Q96GD4); test: Aurora B Inhibition Assay (Z-Lyte); conditions: 128 μM ATP, 28 nM Aurora B; read-out: Aurora B IC50 Ranges
T3 construct: purchased Invitrogen PV3970
T3 sequence (Q96GD4 whole entry): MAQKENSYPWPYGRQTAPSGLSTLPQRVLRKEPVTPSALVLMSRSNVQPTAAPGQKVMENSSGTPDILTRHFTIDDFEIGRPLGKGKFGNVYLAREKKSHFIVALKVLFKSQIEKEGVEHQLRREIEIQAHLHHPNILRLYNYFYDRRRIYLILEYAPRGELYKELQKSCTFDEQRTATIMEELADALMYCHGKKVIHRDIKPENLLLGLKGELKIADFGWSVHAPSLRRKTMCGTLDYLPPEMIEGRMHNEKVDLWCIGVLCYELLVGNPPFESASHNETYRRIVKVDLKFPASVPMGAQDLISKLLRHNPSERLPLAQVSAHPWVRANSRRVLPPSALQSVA
Protocol: (§1) Aurora B inhibition was determined using the Z-Lyte assay kit from Invitrogen. The assay was performed using the recommended manufacturer's instructions with 128 μM ATP and 28 nM Aurora B (Invitrogen cat #PV3970). The % inhibition values were determined according to the manufacturer's directions and IC50 values were obtained using a non-linear 4 point logistic curve fit (XLfit4, IDBS)

PLK2 = biological target: T4, PLK2 (Homo sapiens, UniProt Q9NYY3); test: PLK2 Inhibition Assay (Z-Lyte); conditions: for inhibition at 10 µM: 10 μM compound, read-out: PLK2 relative inhibition percentage at a dose of 10 μM
T4 construct: purchased Invitrogen PV4204
T4 sequence (Q9NYY3 whole entry): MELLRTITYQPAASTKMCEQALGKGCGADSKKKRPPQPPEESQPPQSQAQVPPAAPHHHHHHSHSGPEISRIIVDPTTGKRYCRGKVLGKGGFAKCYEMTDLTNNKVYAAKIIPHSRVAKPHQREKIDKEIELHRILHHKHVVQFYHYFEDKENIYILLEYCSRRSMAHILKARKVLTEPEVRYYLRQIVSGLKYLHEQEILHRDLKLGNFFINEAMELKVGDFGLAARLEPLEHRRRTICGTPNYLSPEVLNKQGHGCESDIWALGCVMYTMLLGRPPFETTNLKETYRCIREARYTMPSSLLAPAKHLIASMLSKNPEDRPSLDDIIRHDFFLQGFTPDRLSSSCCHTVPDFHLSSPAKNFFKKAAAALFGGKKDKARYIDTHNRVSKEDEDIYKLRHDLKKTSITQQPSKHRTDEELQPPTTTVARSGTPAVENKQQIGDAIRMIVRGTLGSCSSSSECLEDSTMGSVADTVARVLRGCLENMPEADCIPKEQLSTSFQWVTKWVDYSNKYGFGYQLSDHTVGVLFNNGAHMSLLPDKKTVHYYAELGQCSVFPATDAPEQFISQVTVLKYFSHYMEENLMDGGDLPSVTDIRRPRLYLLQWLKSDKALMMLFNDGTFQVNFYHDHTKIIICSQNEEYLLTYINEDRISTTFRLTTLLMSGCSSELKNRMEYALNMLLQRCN
Protocol: as §1, with “PLK2” for “Aurora B”, “Invitrogen (cat #PV3802).” for “Invitrogen.”, “60” for “128”, “133” for “28”, “#PV4204).” for “#PV3970).”

Aurora A = biological target: T5, Aurora A (Homo sapiens, UniProt O14965); test: Aurora A Inhibition Assay (Z-Lyte); conditions: for IC50: 20 μM ATP, 12 nM Aurora A, read-out: Aurora A IC50 Ranges; for inhibition at 10 µM: 10 μM compound, read-out: Aurora A relative inhibition percentage at a dose of 10 μM; for inhibition at 1 µM: 1 μM compound, read-out: Aurora A relative inhibition percentage at a dose of 1 μM
T5 construct: purchased Invitrogen PV3612
T5 sequence (O14965 1-403): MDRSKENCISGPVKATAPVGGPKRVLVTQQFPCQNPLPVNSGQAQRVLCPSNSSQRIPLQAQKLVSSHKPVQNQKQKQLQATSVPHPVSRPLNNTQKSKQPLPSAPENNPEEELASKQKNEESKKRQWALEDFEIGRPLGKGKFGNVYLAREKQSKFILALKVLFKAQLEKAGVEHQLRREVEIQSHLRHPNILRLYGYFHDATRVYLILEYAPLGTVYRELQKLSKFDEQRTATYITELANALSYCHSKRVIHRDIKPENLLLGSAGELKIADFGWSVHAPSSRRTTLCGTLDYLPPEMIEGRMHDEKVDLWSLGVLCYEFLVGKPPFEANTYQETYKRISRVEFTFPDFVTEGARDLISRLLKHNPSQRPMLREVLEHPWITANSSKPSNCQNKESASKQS
Protocol: as §1, with “Aurora A” for “Aurora B”, “with 20” for “with 128”, “and 12” for “and 28”, “cat #PV3612).” for “cat #PV3970).”

O=C1Nc2cc(Cl)ccc2/C1=C\c1ccc2cn[nH]c2c1 [Example A36, (E)-3-((1H-indazol-6-yl)methylene)-6-chloroindolin-2-one]
IC50 (human PLK4): < 5 µM | IC50 (PLK1): 5 to 50 µM | IC50 (Aurora B): < 5 µM | inhibition at 10 µM (PLK2): < 50% | IC50 (Aurora A): > 50 µM

O=C1Nc2ccccc2/C1=C\c1cc(Br)c2cn[nH]c2c1 [Example A53a, (E)-3-((4-bromo-1H-indazol-6-yl)methylene)indolin-2-one]
IC50 (human PLK4): < 5 µM | inhibition at 10 µM (PLK1): < 50% | IC50 (Aurora B): < 5 µM | inhibition at 10 µM (PLK2): > 50%

O=C1Nc2c(cccc2C(F)(F)F)C1=Cc1ccc2cn[nH]c2c1 (mixture of isomers) [Example A47, (E and Z)-3-((1H-indazol-6-yl)methylene)-7-(trifluoromethyl)indolin-2-one]
IC50 (human PLK4): > 50 µM | IC50 (PLK1): > 50 µM | IC50 (Aurora B): 5 to 50 µM | IC50 (PLK2; 60 μM ATP, 133 nM PLK2, read-out: PLK2 IC50 Ranges): > 50 µM | IC50 (Aurora A): > 50 µM

O=C1Nc2ncccc2/C1=C\c1ccc2c(/C=C/c3ccncc3)n[nH]c2c1 [Example A101, (E)-3-((3-((E)-2-(pyridin-4-yl)vinyl)-1H-indazol-6-yl)methylene)-1H-pyrrolo[2,3-b]pyridin-2(3H)-one]
IC50 (human PLK4): < 5 µM | inhibition at 10 µM (PLK1): < 50% | IC50 (Aurora B): < 5 µM | inhibition at 10 µM (PLK2): < 50% | inhibition at 10 µM (Aurora A): > 50%

COCn1nc(/C=C/c2ccncc2)c2ccc(/C=C3/C(=O)Nc4ccc(Br)cc43)cc21 [Example A63, (E)-5-bromo-3-((1-(methoxymethyl)-3-((E)-2-(pyridin-4-yl)vinyl)-1H-indazol-6-yl)methylene)indolin-2-one]
IC50 (human PLK4): < 5 µM | inhibition at 10 µM (PLK1): < 50% | inhibition at 10 µM (PLK2): < 50%

COc1ccc2c(c1)/C(=C\c1ccc3c(/C=C/c4ccc(C(=O)O)cc4)n[nH]c3c1)C(=O)N2 [Example A145, 4-((E)-2-(6-((E)-(5-methoxy-2-oxoindolin-3-ylidene)methyl)-1H-indazol-3-yl)vinyl)benzoic acid]
IC50 (human PLK4): < 5 µM | IC50 (Aurora B): < 5 µM | IC50 (Aurora A): < 5 µM

COC(=O)c1ccc(/C=C/c2n[nH]c3cc(/C=C4\C(=O)Nc5ccccc54)ccc23)cc1 [Example A141, methyl 4-((E)-2-(6-((Z)-(2-oxoindolin-3-ylidene)methyl)-1H-indazol-3-yl)vinyl)benzoate]
IC50 (human PLK4): < 5 µM | IC50 (Aurora B): < 5 µM | inhibition at 1 µM (Aurora A): > 50%

N#Cc1ccc2c(c1)C(=Cc1ccc3c(/C=C/c4ccncc4)n[nH]c3c1)C(=O)N2 (mixture of isomers) [Example A128, (E and Z)-2-oxo-3-((3-((E)-2-(pyridin-4-yl)vinyl)-1H-indazol-6-yl)methylene)indoline-5-carbonitrile]
IC50 (human PLK4): < 5 µM | IC50 (Aurora B): < 5 µM | IC50 (Aurora A): < 5 µM

O=C1Nc2ccc(O)cc2/C1=C\c1ccc2c(/C=C/c3ccncc3)n[nH]c2c1 [Example A124, (E)-5-hydroxy-3-((3-((E)-2-(pyridin-4-yl)vinyl)-1H-indazol-6-yl)methylene)indolin-2-one 2,2,2-trifluoroacetate]
IC50 (human PLK4): < 5 µM | IC50 (Aurora B): < 5 µM | IC50 (Aurora A): < 5 µM

O=C1Nc2ncc(Br)cc2C1=Cc1ccc2c(/C=C/c3cccnc3)n[nH]c2c1 (mixture of isomers) [Example A140, (E and Z)-5-bromo-3-((3-((E)-2-(pyridin-3-yl)vinyl)-1H-indazol-6-yl)methylene)-1H-pyrrolo[2,3-b]pyridin-2(3H)-one]
IC50 (human PLK4): < 5 µM | IC50 (Aurora B): < 5 µM | IC50 (Aurora A): < 5 µM

COc1ccc2c(c1)/C(=C\c1ccc3c(-c4cnc(N5CCN(C)CC5)nc4)n[nH]c3c1)C(=O)N2 [Example A151, (E)-5-methoxy-3-((3-(2-(4-methylpiperazin-1-yl)pyrimidin-5-yl)-1H-indazol-6-yl)methylene)indolin-2-one]
IC50 (human PLK4): < 5 µM | IC50 (Aurora B): < 5 µM | IC50 (Aurora A): 5 to 50 µM

COC(=O)c1ccc(/C=C/c2n[nH]c3cc(C=C4C(=O)Nc5ncccc54)ccc23)cc1 (mixture of isomers) [Example A143, methyl 4-((E)-2-(6-((E and Z)-(2-oxo-1H-pyrrolo[2,3-b]pyridin-3(2H)-ylidene)methyl)-1H-indazol-3-yl)vinyl)benzoate]
IC50 (human PLK4): < 5 µM | IC50 (Aurora B): < 5 µM | inhibition at 1 µM (Aurora A): > 50%

COc1ccc2c(c1)/C(=C\c1ccc3c(/C=C/C(=O)N(C)CCN(C)C)n[nH]c3c1)C(=O)N2 [Example A126, (E)-N-(2-(dimethylamino)ethyl)-3-(6-((E)-(5-methoxy-2-oxoindolin-3-ylidene)methyl)-1H-indazol-3-yl)-N-methylacrylamide 2,2,2-trifluoroacetate]
IC50 (human PLK4): < 5 µM | IC50 (Aurora B): < 5 µM | inhibition at 10 µM (Aurora A): > 50%

COC(=O)c1ccc(/C=C/c2n[nH]c3cc(C=C4C(=O)Nc5ccc(OC)cc54)ccc23)cc1 (mixture of isomers) [Example A142, methyl 4-((E)-2-(6-((E and Z)-(5-methoxy-2-oxoindolin-3-ylidene)methyl)-1H-indazol-3-yl)vinyl)benzoate]
IC50 (human PLK4): < 5 µM | IC50 (Aurora B): < 5 µM | inhibition at 1 µM (Aurora A): > 50%

O=C1Nc2ccc(Cl)nc2C1=Cc1ccc2c(/C=C/c3ccncc3)n[nH]c2c1 (mixture of isomers) [Example A137, (E and Z)-5-chloro-3-((3-((E)-2-(pyridin-4-yl)vinyl)-1H-indazol-6-yl)methylene)-1H-pyrrolo[3,2-b]pyridin-2(3H)-one]
IC50 (human PLK4): < 5 µM | IC50 (Aurora B): < 5 µM | IC50 (Aurora A): < 5 µM

O=C1Nc2ccc(Br)cc2C1=Cc1ccc2c(/C=C/c3cccnc3)n[nH]c2c1 (mixture of isomers) [Example A139, (E and Z)-5-bromo-3-((3-((E)-2-(pyridin-3-yl)vinyl)-1H-indazol-6-yl)methylene)indolin-2-one]
IC50 (human PLK4): < 5 µM | IC50 (Aurora B): < 5 µM | IC50 (Aurora A): < 5 µM

COc1ccc2c(c1)/C(=C\c1ccc3c(-c4ccc(N(C)C)nc4)n[nH]c3c1)C(=O)N2 [Example A116, (E)-3-((3-(6-(dimethylamino)pyridin-3-yl)-1H-indazol-6-yl)methyl-ene)-5-methoxyindolin-2-one]
inhibition at 10 µM (PLK1): < 50% | inhibition at 10 µM (PLK2): < 50%

O=C(O)/C=C/c1n[nH]c2cc(C=C3C(=O)Nc4ncccc43)ccc12 (mixture of isomers) [Example A71, (E)-3-(6-((E & Z)-(2-oxo-1H-pyrrolo[2,3-b]pyridin-3(2H)-ylidene)-methyl)-1H-indazol-3-yl)acrylic acid]
IC50 (human PLK4): < 5 µM | IC50 (Aurora B): < 5 µM | inhibition at 10 µM (Aurora A): > 50%
